Source: patent US8853353B2, “Membrane type-1 matrix metalloprotein inhibitors and uses thereof” (Angiochem, Inc., priority 2008, dated 2014)

What was measured:
[1] = system: GST-MT1-MMP cytoplasmic tail fusion protein (GST-MT); details: recombinant Src kinase, ATP, western blot
Description: The GST-MT1-MMP cytoplasmic tail fusion protein (GST-MT) was incubated with recombinant Src kinase in the presence of ATP and the phosphorylation products were analyzed by western blotting.

[2] = system: Fibrosarcoma cells implanted subcutaneously; details: 10 mg/kg daily subcutaneous
Description: Fibrosarcoma cells were implanted subcutaneously into the flank of athymic nude mice. […] Mice were given daily subcutaneous administrations of 10 mg/kg of peptides or vehicle.

[3] = system: osteosarcoma cells (MG-63); details: bone cancer cells, 3D collagen gel
Description: (§1) Different tumor cell lines were incubated with the peptides and grown atop of a collagen film (2D) or within a collagen gel (3D).

tumor cell lines = details: grown atop of a collagen film (2D)
Description: as §1

[4] = system: fibrosarcoma cells (HT-1080); details: 3D collagen gel
Description: as §1

[5] = system: prostate adinocarcinoma cells (PC-3); details: prostate cancer cells, 3D collagen gel
Description: as §1

[6] = system: glioblastoma cells (U-87); details: 3D collagen gel
Description: as §1

[7] = system: breast adenocarcinoma cells (MDA-MB-231); details: breast cancer cells, 3D collagen gel
Description: as §1

[8] = system: medulloblastoma cells (DAOY); details: 3D collagen gel
Description: as §1

Substance	inhibition of Src-mediated tyrosine phosphorylation of GST-MT [1]	tumors completely regressed and totally disappeared [2] [%]	reduction of tumor growth ([2]; 26 days post-implantation) [%]	inhibition of 3D proliferation [3]	effect on tumor cell proliferation in 2D conditions (tumor cell lines)	inhibition of 3D proliferation [4]	inhibition of 3D proliferation [5]	reduction of proliferation in 3D matrix [6]	inhibition of 3D proliferation [7]	reduction of proliferation in 3D matrix [8]
Biotin-Ahx-RQIKIWFQNRRMKWKK-RRHGTPRRLLFCQRSLLDKV [ACM-14]	completely inhibited	17	70	inhibits	does not affect	inhibits	inhibits	50%	inhibits	35%
Biotin-Ahx-RQIKIWFQNRRMKWKK-TLRQRRCLPHFDSGLRKVRL [scACM-14, reference compound]	not observed	–	–	–	–	–	–	no effect	–	no effect
